Results from patent US20100190688A1, “Tetrapeptide analogs” (priority 2004, published 2010).
Where a name gives a salt, the structure may show the parent alone. Read-outs that look alike come from different tables or passages of the source.

Experiments:
[1] = target: T1, BIR3-mediated Caspase-9 inhibition (UniProt Q9R0I6); test: Caspase-9 rescue assay (relief of BIR3-mediated Caspase-9 inhibition); assay type: biochemical, human Caspase-9; Rat or Chicken BIR3; conditions: average EC50, substrate Ac-LEHD-amc, pH 6.5
T1 construct: Nothing is printed for this assay
Procedure: Additionally the compounds and compositions can be evaluated for their ability to achieve relief of BIR3-mediated Caspase-9 inhibition by measuring Caspase-9 reactivation. The fluorogenic substrate Ac-LEHD-7-amido-4-methylcoumarin is used in these methods. EC50 values of tested BIR3 inhibitors or Caspase-9 rescuers is calculated from the percentage of Caspase-9 reactivation in the mixtures containing serially diluted concentrations of tested compound. Typically, 10-point curves are generated for such EC50 determination.
Relief of BIR3-mediated Caspase-9 inhibition by BIR3 inhibitors was assayed by measuring Caspase-9 reactivation using the fluorogenic substrate Ac-LEHD-7-amido-4-methylcoumarin. A truncated form of human Caspase-9 that lacks the N-terminal Caspase recruitment domain (EPro-Caspase-9 or p35/p12) was used in the assay. This form of the enzyme has the full catalytic activity and the same substrate specificity as the full-length protein in the Apaf-1/Cytochrome C/dATP/Caspase-9 reconstituted system. Rat or Chicken BIR3 was used in this assay. […] This mixture was incubated for 40 min to allow equilibration at 25° C., and the assay progression was subsequently followed by monitoring the formation of fluorescent 7-amido-4-methylcoumarin over time at 460 nm using an excitation wavelength of 360 nm. […] EC50 values of tested BIR3 inhibitors or Caspase-9 rescuers were calculated from the percentage of Caspase-9 reactivation in the mixtures containing serially diluted concentrations of tested compound.

[2] = target: BIR3 domain of rat XIAP (Rattus norvegicus, UniProt Q9R0I6); test: Fluorescence polarization assay, binding to BIR3 from rat XIAP
BIR3 domain of rat XIAP, sequence (Q9R0I6 241-355): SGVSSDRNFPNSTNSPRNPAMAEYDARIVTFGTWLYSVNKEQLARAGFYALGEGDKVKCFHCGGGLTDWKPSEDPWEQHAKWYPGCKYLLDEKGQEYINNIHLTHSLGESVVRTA
Procedure: In fluorescence polarization assays a fluorescent probe is used. The binding affinity of compounds to BIR3 is measured by competitive displacement of a fluorescent probe using fluorescence polarization anisotropy. […] In other embodiments, the probe used is 6-(6-Hydroxy-3-oxo-3H-xanthen-9-yl)-N-(5-(2-methylamino-propionylamino)-6-oxo-6-[4-(1,2,3,4-tetrahydro-naphthalen-1-ylcarbamoyl)-thiazolidin-3-yl]-hexyl)-isophthalamic acid.
The binding affinity of compounds provided herein for rat BIR3 was measured by competitive displacement of a fluorescent probe using fluorescence polarization anisotropy. […] Control conditions were set up on each plate and include free probe 1 alone (5 nM), fully bound probe (5 μM BIR3+5 nM probe 1) and binding buffer blank. The-EC50 of binding was computed from a 4-parameter fit of the measured anisotropies using the SoftMax Pro 4.6 software package (Molecular Dynamics, Sunnyvale, Calif.).
Alternatively, probe 1 was substituted with probe 2: 6-(6-Hydroxy-3-oxo-3H-xanthen-9-yl)-N-{5-(2-methylamino-propionylamino)-6-oxo-6-[4-(1,2,3,4-tetrahydro-naphthalen-1-ylcarbamoyl)-thiazolidin-3-yl]-hexyl}-isophthalamic acid, for rat BIR3 and the concentrations of assay components changed. […] Controls were adjusted accordingly.

EC50 [1] [nM] | EC50 [2] [nM] | SMILES | EC50 ([2]; read-out: EC50 for binding to BIR3, average EC50, BIR3 domain of rat XIAP, competitive displacement of fluorescent probe) [nM]
1000 to 10000 | < 1000 | CNC(C)C(=O)NC(C(=O)N1CC2(CC1C(=O)NC1CCCc3ccccc31)SCCS2)C(C)C (stereo not drawn) [7-[3-Methyl-2-(2-methylamino-propionylamino)-butyryl]-1,4-dithia-7-aza-spiro[4.4]nonane-8-carboxylic acid (1,2,3,4-tetrahydro-naphthalen-1-yl)-amide] | –
< 1000 | < 1000 | CNC(C)C(=O)NC(C(=O)NC(C(=O)NC1CCCc2ccccc21)c1ccccc1)C(C)C (stereo not drawn) [3-Methyl-2-(2-methylamino-propionylamino)-N-[phenyl-(1,2,3,4-tetrahydro-naphthalen-1-ylcarbamoyl)-methyl]-butyramide] | –
1000 to 10000 | < 1000 | CNC(C)C(=O)NC(C(=O)N(C)C(CCCCNC(=O)OCc1ccccc1)C(=O)NC1CCCc2ccccc21)C(C)C (stereo not drawn) [[5-{Methyl-[3-methyl-2-(2-methylamino-propionylamino)-butyryl]-amino}-5-(1,2,3,4-tetrahydro-naphthalen-1-ylcarbamoyl)-pentyl]-carbamic acid benzyl ester] | –
1000 to 10000 | < 1000 | CNC(C)C(=O)NC1CCC(=O)N2CCC(C(=O)NC3CCCc4ccccc43)N2C1=O (stereo not drawn) [8-(2-Methylamino-propionylamino)-5,9-dioxo-hexahydro-pyrazolo[1,2-a][1,2]diazepine-1-carboxylic acid (1,2,3,4-tetrahydro-naphthalen-1-yl)-amide] | –
> 10000 | 1000 to 10000 | CNC(C)C(=O)NC(C(=O)N1CCCC1C(=O)NCCC(c1ccccc1)c1ccccc1)C(C)(C)C (stereo not drawn) [1-[3,3-Dimethyl-2-(2-methylamino-propionylamino)-butyryl]-pyrrolidine-2-carboxylic acid (3,3-diphenyl-propyl)-amide] | –
< 1000 | < 1000 | CNC(C)C(=O)NC(C(=O)N1CSCC1C(=O)NC(c1ccccc1)c1ccccc1)C(C)C (stereo not drawn) [3-[3-Methyl-2-(2-methylamino-propionylamino)-butyryl]-thiazolidine-4-carboxylic acid benzhydryl-amide] | –
1000 to 10000 | < 1000 | CNC(C)C(=O)NC(C(=O)NC(CC(=O)OCc1ccccc1)C(=O)NC1CCCc2ccccc21)C(C)C (stereo not drawn) [3-[3-Methyl-2-(2-methylamino-propionylamino)-butyrylamino]-N-(1,2,3,4-tetrahydro-naphthalen-1-yl)-succinamic acid benzyl ester] | –
< 1000 | < 1000 | CN[C@@H](C)C(=O)N[C@H](C(=O)N1COC[C@H]1C(=O)N[C@@H]1CCCc2ccccc21)C(C)C [3-[3-Methyl-2-(2-methylamino-propionylamino)-butyryl]-oxazolidine-4-carboxylic acid (1,2,3,4-tetrahydro-naphthalen-1-yl)-amide] | –
< 1000 | < 1000 | CNC(C)C(=O)NC(C(=O)NC(CCCCN(C)C)C(=O)NC1CCCc2ccccc21)C(C)C (stereo not drawn) [6-Dimethylamino-2-[3-methyl-2-(2-methylamino-propionylamino)-butyrylamino]-hexanoic acid (1,2,3,4-tetrahydro-naphthalen-1-yl)-amide] | –
< 1000 | < 1000 | CNC(C)C(=O)NC(C(=O)NC(CCCCNS(=O)(=O)Cc1ccccc1)C(=O)NC1CCCc2ccccc21)C(C)C (stereo not drawn) [2-[3-Methyl-2-(2-methylamino-propionylamino]-butyrylamino]-6-phenylmethanesulfonylamino-hexanoic acid (1,2,3,4-tetrahydro-naphthalen-1-yl)-amide] | –
< 1000 | < 1000 | CNC(C)C(=O)NC(C(=O)N1CSCC1C(=O)NC1CCc2ccccc21)C(C)C (stereo not drawn) [3-[3-Methyl-2-(2-methylamino-propionylamino)-butyryl]-thiazolidine-4-carboxylic acid indan-1-ylamide] | –
1000 to 10000 | < 1000 | CN[C@@H](C)C(=O)N[C@H]1CCCN2CC[C@@H](C(=O)N[C@@H]3CCCc4ccccc43)N2C1=O [8-(2-Methylamino-propionylamino)-9-oxo-hexahydro-pyrazolo[1,2-a][1,2]diazepine-1-carboxylic acid (1,2,3,4-tetrahydro-naphthalen-1-yl)-amide] | –
1000 to 10000 | < 1000 | CNC(C)C(=O)NC(C(=O)NC(CCOCc1ccccc1)C(=O)NC1CCCc2ccccc21)C(C)C (stereo not drawn) [N-[3-Benzyloxy-1-(1,2,3,4-tetrahydro-naphthalen-1-ylcarbamoyl)-propyl]-3-methyl-2-(2-methylamino-propionylamino)-butyramide] | –
1000 to 10000 | 1000 to 10000 | CNC(C)C(=O)NC(C(=O)NCC(=O)NC1CCCc2ccccc21)C(C)C (stereo not drawn) [3-Methyl-2-(2-methylamino-propionylamino)-N-[(1,2,3,4-tetrahydro-naphthalen-1-ylcarbamoyl)-methyl]-butyramide] | –
> 10000 | 1000 to 10000 | CNC(C)C(=O)NC(C(=O)N(CCc1ccccc1)CC(=O)NC1CCCc2ccccc21)C(C)(C)C (stereo not drawn) [3,3-Dimethyl-2-(2-methylamino-propionylamino)-N-phenethyl-N-[(1,2,3,4-tetrahydro-naphthalen-1-ylcarbamoyl)-methyl]-butyramide TFA salt] | –
< 1000 | < 1000 | CNC(C)C(=O)NC(C(=O)N1CS(=O)(=O)CC1C(=O)NC1CCCc2ccccc21)C(C)C (stereo not drawn) [3-[3-Methyl-2-(2-methylamino-propionylamino)-butyryl]-1,1-dioxo-1l6-thiazolidine-4-carboxylic acid (1,2,3,4-tetrahydro-naphthalen-1-yl)-amide] | –
< 1000 | < 1000 | CNC(C)C(=O)NC(C(=O)N1C(C(=O)NC2CCCc3ccccc32)CC2CCCCC21)C(C)C (stereo not drawn) [1-[3-Methyl-2-(2-methylamino-propionylamino)-butyryl]-octahydro-indole-2-carboxylic acid (1,2,3,4-tetrahydro-naphthalen-1-yl)-amide] | –
1000 to 10000 | < 1000 | CNC(C)C(=O)NC(C(=O)NC(CCC(=O)OCc1ccccc1)C(=O)NC1CCCc2ccccc21)C(C)C (stereo not drawn) [4-[3-Methyl-2-(2-methylamino-propionylamino)-butyrylamino]-4-(1,2,3,4-tetrahydro-naphthalen-1-ylcarbamoyl)-butyric acid benzyl ester] | –
1000 to 10000 | < 1000 | CNC(C)C(=O)NC(C(=O)N1Cc2ccccc2CC1C(=O)NC(Cc1ccccc1)Cc1ccccc1)C(C)C (stereo not drawn) [2-[3-Methyl-2-(2-methylamino-propionylamino)-butyryl]-1,2,3,4-tetrahydro-isoquinoline-3-carboxylic acid (1-benzyl-2-phenyl-ethyl)-amide] | –
1000 to 10000 | < 1000 | CNC(C)C(=O)NC(C(=O)N1Cc2ccccc2CC1C(=O)NC(c1ccccc1)c1ccccc1)C(C)C (stereo not drawn) [2-[3-Methyl-2-(2-methylamino-propionylamino)-butyryl]-1,2,3,4-tetrahydro-isoquinoline-3-carboxylic acid benzhydryl-amide] | –

SMILES | EC50 [1] [nM] | EC50 [2] [nM] | EC50 ([2]; read-out: EC50 for binding to BIR3, average EC50, BIR3 domain of rat XIAP, competitive displacement of fluorescent probe) [nM]
CN[C@@H](C)C(=O)N[C@H](C(=O)N(C)[C@@H](CCCNC(=N)NS(=O)(=O)c1ccc(C)cc1)C(=O)N[C@@H]1CCCc2ccccc21)C(C)C [(S)-2-((S)-N,3-dimethyl-2-((S)-2-(methylamino)propanamido)butanamido)-N-((R)-1,2,3,4-tetrahydronaphthalen-1-yl)-5-(3-Htosylguanidino)pentanamide; 2,2,2-trifluoroacetic acid salt] | < 1000 | – | < 1000
